For 6 molecules, EC50 and Emax results are on record in PMC5518309 (ChemMedChem, 2014).

Common to all, as to format: cell-based
One test has as its target T1, hY1R (Homo sapiens, UniProt P25929).
T1 sequence (P25929 1-384): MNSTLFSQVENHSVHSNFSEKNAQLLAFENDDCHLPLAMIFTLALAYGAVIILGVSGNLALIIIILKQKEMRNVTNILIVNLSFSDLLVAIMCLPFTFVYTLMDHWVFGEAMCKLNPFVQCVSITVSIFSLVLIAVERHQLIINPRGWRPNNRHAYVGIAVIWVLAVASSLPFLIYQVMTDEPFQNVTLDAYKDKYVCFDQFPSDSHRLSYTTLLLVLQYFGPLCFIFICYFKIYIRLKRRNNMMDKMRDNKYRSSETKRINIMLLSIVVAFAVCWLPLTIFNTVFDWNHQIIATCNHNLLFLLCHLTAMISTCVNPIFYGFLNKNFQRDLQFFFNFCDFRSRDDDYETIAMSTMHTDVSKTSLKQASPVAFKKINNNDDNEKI
Briefly: Inositol phosphate accumulation assay, hY1R. Conditions: for Emax: read-out: hY1R Emax.

The target of the next test is T2, hY2R (Homo sapiens, UniProt P49146).
T2 sequence (P49146 1-381): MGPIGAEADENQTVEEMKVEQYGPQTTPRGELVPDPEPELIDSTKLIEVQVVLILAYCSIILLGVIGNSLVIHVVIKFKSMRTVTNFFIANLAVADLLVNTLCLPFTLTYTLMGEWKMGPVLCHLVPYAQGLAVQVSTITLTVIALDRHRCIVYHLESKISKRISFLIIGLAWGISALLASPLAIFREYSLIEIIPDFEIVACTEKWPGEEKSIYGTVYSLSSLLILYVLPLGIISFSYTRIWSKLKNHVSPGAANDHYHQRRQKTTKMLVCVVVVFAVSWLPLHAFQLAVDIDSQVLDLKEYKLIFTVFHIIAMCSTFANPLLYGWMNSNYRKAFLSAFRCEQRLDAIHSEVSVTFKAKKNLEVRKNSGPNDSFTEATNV
Briefly: Inositol phosphate accumulation assay, hY2R. To be noted: for Emax: read-out: hY2R Emax.

The next test addresses hY4R (Homo sapiens, UniProt P50391). The experiment in a line: Inositol phosphate accumulation assay, hY4R. To be noted: for Emax: read-out: hY4R Emax.
The target in a further test is T3, hY5R (Homo sapiens, UniProt Q15761).
T3 sequence (Q15761 1-445): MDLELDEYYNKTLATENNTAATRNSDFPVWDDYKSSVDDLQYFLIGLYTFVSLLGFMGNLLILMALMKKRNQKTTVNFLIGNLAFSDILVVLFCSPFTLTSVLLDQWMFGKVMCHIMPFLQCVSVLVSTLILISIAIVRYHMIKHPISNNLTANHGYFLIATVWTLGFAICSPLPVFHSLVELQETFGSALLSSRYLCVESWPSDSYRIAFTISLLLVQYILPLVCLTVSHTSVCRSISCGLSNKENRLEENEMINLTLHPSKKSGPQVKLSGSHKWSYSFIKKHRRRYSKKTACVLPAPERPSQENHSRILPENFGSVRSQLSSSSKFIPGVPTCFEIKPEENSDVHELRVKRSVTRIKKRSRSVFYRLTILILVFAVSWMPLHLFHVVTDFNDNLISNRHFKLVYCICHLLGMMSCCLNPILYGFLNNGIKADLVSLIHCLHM
Briefly: Inositol phosphate accumulation assay, hY5R. To be noted: for Emax: read-out: hY5R Emax.

Numbered stars: 1 amine (or outer) side, 2 acyl side, 3 side chain; on linkers, the order of the positions; unused ones are H or OH. Side chains are listed from the residue outwards. Ends that are not written are not given here. Peptide text beside a SMILES is read from it. * marks the point of attachment. Arachidoyl = CCCCCCCCCCCCCCCCCCCC(=O)*; γGlu = O=C(O)[C@H](CCC(=O)[*:2])N[*:1]; Lauroyl = CCCCCCCCCCCC(=O)*; Octanoyl = CCCCCCCC(=O)*; Propionyl = CCC(=O)* Bounds are passed on as bounds.

Sequence of hY4R (P50391 whole entry): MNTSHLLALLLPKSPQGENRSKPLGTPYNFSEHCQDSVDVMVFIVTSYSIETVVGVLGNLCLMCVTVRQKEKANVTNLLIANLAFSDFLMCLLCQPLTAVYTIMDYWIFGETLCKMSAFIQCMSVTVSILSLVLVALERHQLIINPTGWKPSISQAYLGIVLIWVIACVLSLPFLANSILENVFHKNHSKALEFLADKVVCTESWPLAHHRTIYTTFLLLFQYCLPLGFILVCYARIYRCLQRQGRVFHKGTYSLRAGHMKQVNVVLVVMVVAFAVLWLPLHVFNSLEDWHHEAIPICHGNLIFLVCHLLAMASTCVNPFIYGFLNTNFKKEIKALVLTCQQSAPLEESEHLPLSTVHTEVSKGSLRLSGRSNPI

In general, EC50 refers to the concentration at which the effect is half-maximal. Read a high EC50 as lower potency in that assay. As a reminder, the Emax is the greatest response seen or fitted, relative to the assay's reference. Take `CCCCCCCC(=O)N[C@@H](CCC(=O)NCCCC[C@H](NC(=O)[C@H](CC(N)=O)NC(=O)[C@@H](NC(=O)[C@H](Cc1ccc(O)cc1)NC(=O)[C@H](CCCNC(=N)N)NC(=O)[C@H](CCCNC(=N)N)NC(=O)[C@H](CC(C)C)NC(=O)[C@H](CC(=O)O)NC(=O)[C@H](C)NC(=O)[C@H](C)NC(=O)[C@H](Cc1ccc(O)cc1)NC(=O)[C@H](CCC(N)=O)NC(=O)[C@H](C)NC(=O)[C@H](CCSC)NC(=O)[C@H](CCC(N)=O)NC(=O)[C@H](CCC(=O)O)NC(=O)[C@@H]1CCCN1C(=O)[C@@H](NC(=O)[C@H](C)NC(=O)[C@H](CC(N)=O)NC(=O)[C@H](CC(=O)O)NC(=O)CNC(=O)[C@@H]1CCCN1C(=O)[C@H](Cc1ccc(O)cc1)NC(=O)[C@@H](NC(=O)[C@@H]1CCCN1C(=O)[C@H](CCC(=O)O)NC(=O)[C@H](CC(C)C)NC(=O)[C@@H]1CCCN1)C(C)C)[C@@H](C)O)[C@@H](C)CC)C(=O)N[C@@H](CC(C)C)C(=O)N[C@H](C(=O)N[C@@H](CCCNC(=N)N)C(=O)N1CCC[C@H]1C(=O)N[C@@H](CCCNC(=N)N)C(=O)N[C@@H](Cc1ccc(O)cc1)C(N)=O)[C@@H](C)O)C(=O)O` [16a, [K^30(E-Capr)]hPP2–36] (H-PLEPVYPGDNATPEQMAQYAADLRRYINK([γGlu-Octanoyl])LTRPRY-NH2): the EC50 at hY1R was greater than 1000 nM; at hY2R it was greater than 1000 nM; at hY4R it was 1.2 nM; at hY5R it was 386 nM. Also, the Emax at hY1R was found to be 84 ± 6%; on hY2R, 85 ± 5%; at hY4R, 82 ± 4%; at hY5R, 75 ± 5%.

Consider `CCCCCCCCCCCCCCCCCCCC(=O)N[C@@H](CCC(=O)NCCCC[C@H](NC(=O)[C@H](C)NC(=O)[C@H](Cc1ccc(O)cc1)NC(=O)[C@H](CCC(N)=O)NC(=O)[C@H](C)NC(=O)[C@H](CCSC)NC(=O)[C@H](CCC(N)=O)NC(=O)[C@H](CCC(=O)O)NC(=O)[C@@H]1CCCN1C(=O)[C@@H](NC(=O)[C@H](C)NC(=O)[C@H](CC(N)=O)NC(=O)[C@H](CC(=O)O)NC(=O)CNC(=O)[C@@H]1CCCN1C(=O)[C@H](Cc1ccc(O)cc1)NC(=O)[C@@H](NC(=O)[C@@H]1CCCN1C(=O)[C@H](CCC(=O)O)NC(=O)[C@H](CC(C)C)NC(=O)[C@@H]1CCCN1)C(C)C)[C@@H](C)O)C(=O)N[C@@H](CC(=O)O)C(=O)N[C@@H](CC(C)C)C(=O)N[C@@H](CCCNC(=N)N)C(=O)N[C@@H](CCCNC(=N)N)C(=O)N[C@@H](Cc1ccc(O)cc1)C(=O)N[C@H](C(=O)N[C@@H](CC(N)=O)C(=O)N[C@@H](CCSC)C(=O)N[C@@H](CC(C)C)C(=O)N[C@H](C(=O)N[C@@H](CCCNC(=N)N)C(=O)N1CCC[C@H]1C(=O)N[C@@H](CCCNC(=N)N)C(=O)N[C@@H](Cc1ccc(O)cc1)C(N)=O)[C@@H](C)O)[C@@H](C)CC)C(=O)O` [compound 13, [K^22(E-Ara)]hPP2–36] (H-PLEPVYPGDNATPEQMAQYAK([γGlu-Arachidoyl])DLRRYINMLTRPRY-NH2), for which the EC50 was 11.3 nM on hY1R, 0.9 nM at hY2R, 2.7 nM at hY4R and 0.8 nM on hY5R. Further, the Emax on hY1R is 101 ± 6%; at hY2R, 90 ± 5%; at hY4R, 93 ± 6%; on hY5R, 75 ± 6%.

Take `CCCCCCCCCCCC(=O)N[C@@H](CCC(=O)NCCCC[C@H](NC(=O)[C@H](C)NC(=O)[C@H](Cc1ccc(O)cc1)NC(=O)[C@H](CCC(N)=O)NC(=O)[C@H](C)NC(=O)[C@H](CCSC)NC(=O)[C@H](CCC(N)=O)NC(=O)[C@H](CCC(=O)O)NC(=O)[C@@H]1CCCN1C(=O)[C@@H](NC(=O)[C@H](C)NC(=O)[C@H](CC(N)=O)NC(=O)[C@H](CC(=O)O)NC(=O)CNC(=O)[C@@H]1CCCN1C(=O)[C@H](Cc1ccc(O)cc1)NC(=O)[C@@H](NC(=O)[C@@H]1CCCN1C(=O)[C@H](CCC(=O)O)NC(=O)[C@H](CC(C)C)NC(=O)[C@@H]1CCCN1)C(C)C)[C@@H](C)O)C(=O)N[C@@H](CC(=O)O)C(=O)N[C@@H](CC(C)C)C(=O)N[C@@H](CCCNC(=N)N)C(=O)N[C@@H](CCCNC(=N)N)C(=O)N[C@@H](Cc1ccc(O)cc1)C(=O)N[C@H](C(=O)N[C@@H](CC(N)=O)C(=O)N[C@@H](CCSC)C(=O)N[C@@H](CC(C)C)C(=O)N[C@H](C(=O)N[C@@H](CCCNC(=N)N)C(=O)N1CCC[C@H]1C(=O)N[C@@H](CCCNC(=N)N)C(=O)N[C@@H](Cc1ccc(O)cc1)C(N)=O)[C@@H](C)O)[C@@H](C)CC)C(=O)O` [compound 11, [K^22(E-Laur)]hPP2–36] (H-PLEPVYPGDNATPEQMAQYAK([γGlu-Lauroyl])DLRRYINMLTRPRY-NH2): the half-maximal effective concentration (EC50) at hY1R amounted to 204 nM; at hY2R it was 49.6 nM; at hY4R, 1.5 nM; at hY5R it was 14.9 nM. Moreover, the maximum response (Emax) came to 87 ± 5% on hY1R, 101 ± 7% at hY2R, 86 ± 5% at hY4R and 87 ± 5% on hY5R.

On to `CCC(=O)N[C@@H](CCC(=O)NCCCC[C@H](NC(=O)[C@H](CC(N)=O)NC(=O)[C@@H](NC(=O)[C@H](Cc1ccc(O)cc1)NC(=O)[C@H](CCCNC(=N)N)NC(=O)[C@H](CCCNC(=N)N)NC(=O)[C@H](CC(C)C)NC(=O)[C@H](CC(=O)O)NC(=O)[C@H](C)NC(=O)[C@H](C)NC(=O)[C@H](Cc1ccc(O)cc1)NC(=O)[C@H](CCC(N)=O)NC(=O)[C@H](C)NC(=O)[C@H](CCSC)NC(=O)[C@H](CCC(N)=O)NC(=O)[C@H](CCC(=O)O)NC(=O)[C@@H]1CCCN1C(=O)[C@@H](NC(=O)[C@H](C)NC(=O)[C@H](CC(N)=O)NC(=O)[C@H](CC(=O)O)NC(=O)CNC(=O)[C@@H]1CCCN1C(=O)[C@H](Cc1ccc(O)cc1)NC(=O)[C@@H](NC(=O)[C@@H]1CCCN1C(=O)[C@H](CCC(=O)O)NC(=O)[C@H](CC(C)C)NC(=O)[C@@H]1CCCN1)C(C)C)[C@@H](C)O)[C@@H](C)CC)C(=O)N[C@@H](CC(C)C)C(=O)N[C@H](C(=O)N[C@@H](CCCNC(=N)N)C(=O)N1CCC[C@H]1C(=O)N[C@@H](CCCNC(=N)N)C(=O)N[C@@H](Cc1ccc(O)cc1)C(N)=O)[C@@H](C)O)C(=O)O` [15a, [K^30(E-Prop)]hPP2–36] (H-PLEPVYPGDNATPEQMAQYAADLRRYINK([γGlu-Propionyl])LTRPRY-NH2), for which the 50% effective concentration (EC50) on hY1R was greater than 1000 nM; on hY2R, greater than 1000 nM; on hY4R it was 1.3 nM; at hY5R, 937 nM. The maximum response (Emax) worked out at 99 ± 4% on hY1R, 88 ± 6% at hY2R, 88 ± 4% at hY4R and 70 ± 3% on hY5R.

As for `CC[C@H](C)[C@H](NC(=O)[C@H](Cc1ccc(O)cc1)NC(=O)[C@H](CCCNC(=N)N)NC(=O)[C@H](CCCNC(=N)N)NC(=O)[C@H](CC(C)C)NC(=O)[C@H](CC(=O)O)NC(=O)[C@H](C)NC(=O)[C@H](C)NC(=O)[C@H](Cc1ccc(O)cc1)NC(=O)[C@H](CCC(N)=O)NC(=O)[C@H](C)NC(=O)[C@H](CCSC)NC(=O)[C@H](CCC(N)=O)NC(=O)[C@H](CCC(=O)O)NC(=O)[C@@H]1CCCN1C(=O)[C@@H](NC(=O)[C@H](C)NC(=O)[C@H](CC(N)=O)NC(=O)[C@H](CC(=O)O)NC(=O)CNC(=O)[C@@H]1CCCN1C(=O)[C@H](Cc1ccc(O)cc1)NC(=O)[C@@H](NC(=O)[C@@H]1CCCN1C(=O)[C@H](CCC(=O)O)NC(=O)[C@H](CC(C)C)NC(=O)[C@@H]1CCCN1C(=O)[C@H](C)N)C(C)C)[C@@H](C)O)C(=O)N[C@@H](CC(N)=O)C(=O)N[C@@H](CCSC)C(=O)N[C@@H](CC(C)C)C(=O)N[C@H](C(=O)N[C@@H](CCCNC(=N)N)C(=O)N1CCC[C@H]1C(=O)N[C@@H](CCCNC(=N)N)C(=O)N[C@@H](Cc1ccc(O)cc1)C(N)=O)[C@@H](C)O` [1a, hPP, reference compound], the results for the maximal effect (Emax) at hY1R, on hY2R and on hY5R were 95 ± 3%, 96 ± 5% and 90 ± 5%, respectively.

For the molecule “PLEPVYPGDNATPEQMAQYAADLRRYINKLTRPRY-NH2 [14a, [K^30]hPP2–36]”, the EC50 on hY1R was greater than 1000 nM; on hY4R, 1.4 nM; on hY5R it was 23.9 nM. The maximal effect (Emax) at hY1R amounted to 93 ± 5%; on hY4R, 95 ± 4%; on hY5R, 79 ± 4%.
